# Experimental data: patent US20240247015A1, “PHOSPHORUS DERIVATIVES AS NOVEL SOS1 INHIBITORS” (BAYER AKTIENGESELLSCHAFT, priority 2021, published 2024)
# Target: interaction of human SOS1 (SOS1) with human K-RasG12C (Homo sapiens (Human), UniProt Q07889)
# Assay: Biochemical assay: hK-RasG12C interaction assay with hSOS1 (HTRF)
# Assay type: binding
# Settings: GST-hK-RasG12C with His-hSOS1, 60 min incubation at 20° C., mean, read-out: K-RasG12C - SOS interaction assay IC50 (mean)
# Method in brief: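 Compounds, duplicates at 11 concentrations from 0.073 nM to 20 µM, were preincubated 2 min with 10 nM GST-hK-RasG12C, then 20 nM His-hSOS1 was added, all at 20 °C. After 60 min, 665/620 nm HTRF ratio normalized to DMSO and SOS1-free controls; IC50 by 4-parameter fit.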
# interaction of human SOS1 (SOS1) with human K-RasG12C, sequence (Q07889 564-1049 limits assumed): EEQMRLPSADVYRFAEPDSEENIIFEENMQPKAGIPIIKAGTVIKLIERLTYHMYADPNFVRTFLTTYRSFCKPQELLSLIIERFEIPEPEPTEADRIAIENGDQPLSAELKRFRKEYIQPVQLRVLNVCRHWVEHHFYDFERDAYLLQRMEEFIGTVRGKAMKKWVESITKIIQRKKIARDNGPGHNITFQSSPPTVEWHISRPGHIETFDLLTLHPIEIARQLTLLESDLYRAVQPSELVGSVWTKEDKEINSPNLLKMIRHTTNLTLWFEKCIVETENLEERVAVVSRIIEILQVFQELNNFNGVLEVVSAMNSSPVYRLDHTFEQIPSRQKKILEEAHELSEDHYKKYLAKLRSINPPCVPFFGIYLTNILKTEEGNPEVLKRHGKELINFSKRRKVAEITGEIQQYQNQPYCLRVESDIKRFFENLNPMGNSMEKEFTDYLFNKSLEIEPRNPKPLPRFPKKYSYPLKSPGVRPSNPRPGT
row,Compound,IC50 [nM]
1,"Cc1nc(N[C@H](C)c2cccc(C(F)F)c2F)c2cc(P3(=O)CCN(C(=O)[C@H](C)O)CC3)ncc2n1 [Example 157, 4-[4-{{(1R)-1-[3-(difluoromethyl)-2-fluorophenyl]ethyl}amino)-2-methylpyrido[3,4-d]pyrimidin-6-yl]-1-[(2S)-2-hydroxypropanoyl]-1,4lambda^5-azaphosphinan-4-one]",5.04
2,"Cc1nc(N[C@H](C)c2cccc(C(F)F)c2F)c2cc(P3(=O)CCN(C(=O)C4COC4)CC3)ncc2n1 [Example 158, 4-[4-{{(1R)-1-[3-(difluoromethyl)-2-fluorophenyl]ethyl}amino)-2-methylpyrido[3,4-d]pyrimidin-6-yl]-1-(oxetane-3-carbonyl)-1,4lambda^5-azaphosphinan-4-one]",7.89
3,"Cc1nc(N[C@H](C)c2cccc(C(F)F)c2F)c2cc(P3(=O)CCN(C(=O)C4(C(F)F)CC4)CC3)ncc2n1 [Example 159, 1-[1-(difluoromethyl)cyclopropane-1-carbonyl]-4-[4-{{(1R)-1-[3-(difluoromethyl)-2-fluorophenyl]ethyl}amino)-2-methylpyrido[3,4-d]pyrimidin-6-yl]-1,4lambda^5-azaphosphinan-4-one]",12.7
4,"Cc1nc(N[C@H](C)c2cccc(C(F)F)c2F)c2cc(P3(=O)CCN(C(=O)C4CC(F)(F)C4)CC3)ncc2n1 [Example 160, 1-(3,3-difluorocyclobutane-1-carbonyl)-4-[4-({(1R)-1-[3-(difluoromethyl)-2-fluorophenyl]ethyl}amino)-2-methylpyrido[3,4-d]pyrimidin-6-yl]-1,4lambda^5-azaphosphinan-4-one]",7.87
5,"Cc1nc(N[C@H](C)c2cccc(C(F)F)c2F)c2cc(P3(=O)CCN(C(=O)c4cnn(C)c4)CC3)ncc2n1 [Example 161, 4-[4-{{(1R)-1-[3-(difluoromethyl)-2-fluorophenyl]ethyl}amino)-2-methylpyrido[3,4-d]pyrimidin-6-yl]-1-(1-methyl-1H-pyrazole-4-carbonyl)-1,4lambda^5-azaphosphinan-4-one]",13.4

# More lines, now with the values ahead:
row,IC50 [nM],Compound
1,272,"Cc1nc(N[C@H](C)c2cccc(C(F)(F)F)c2C)c2cc(P3(=O)CCN(C(=O)CC#N)CC3)ncc2n1 [Example 162, 3-{4-[2-methyl-4-({(1R)-1-[2-methyl-3-(trifluoromethyl)phenyl]ethyl}amino)pyrido[3,4-d]pyrimidin-6-yl]-4-oxo-1,4lambda^5-azaphosphinan-1-yl}-3-oxopropanenitrile]"
2,4.77,"Cc1nc(N[C@H](C)c2cccc(C(F)F)c2F)c2cc(P3(=O)CCN(C(=O)C4CC4)CC3)ncc2n1 [Example 163, 1-(cyclopropanecarbonyl)-4-[4-({(1R)-1-[3-(difluoromethyl)-2-fluorophenyl]ethyl}amino)-2-methylpyrido[3,4-d]pyrimidin-6-yl]-1,4lambda^5-azaphosphinan-4-one]"
3,7.01,"Cc1nc(N[C@H](C)c2cccc(C(F)(F)F)c2C)c2cc(P3(=O)CCN(C(=O)C4COC4)CC3)ncc2n1 [Example 164, 4-[2-methyl-4-{{(1R)-1-[2-methyl-3-(trifluoromethyl)phenyl]ethyl}amino)pyrido[3,4-d]pyrimidin-6-yl]-1-(oxetane-3-carbonyl)-1,4lambda^5-azaphosphinan-4-one]"
4,4.37,"Cc1nc(N[C@H](C)c2cccc(C(F)(F)F)c2C)c2cc(P3(=O)CCN(C(=O)[C@H](C)O)CC3)ncc2n1 [Example 165, 1-[(2S)-2-hydroxypropanoyl]-4-[2-methyl-4-{{(1R)-1-[2-methyl-3-(trifluoromethyl)phenyl]ethyl}amino)pyrido[3,4-d]pyrimidin-6-yl]-1,4lambda^5-azaphosphinan-4-one]"
5,4.83,"Cc1nc(N[C@H](C)c2cccc(C(F)(F)F)c2C)c2cc(P3(=O)CCN(C(=O)[C@@H](C)O)CC3)ncc2n1 [Example 166, 1-[(2R)-2-hydroxypropanoyl]-4-[2-methyl-4-{{(1R)-1-[2-methyl-3-(trifluoromethyl)phenyl]ethyl}amino)pyrido[3,4-d]pyrimidin-6-yl]-1,4lambda^5-azaphosphinan-4-one]"
